In paper PMC4877059 (Journal of medicinal chemistry, 2013):
Like-named read-outs stand apart in the source and are kept apart here.

How the values were obtained:
NPSR [1] = molecular target: T1, NPSR (Homo sapiens, UniProt Q6W5P4); assay: ERK assay; format: cell-based
T1 sequence (Q6W5P4 1-371): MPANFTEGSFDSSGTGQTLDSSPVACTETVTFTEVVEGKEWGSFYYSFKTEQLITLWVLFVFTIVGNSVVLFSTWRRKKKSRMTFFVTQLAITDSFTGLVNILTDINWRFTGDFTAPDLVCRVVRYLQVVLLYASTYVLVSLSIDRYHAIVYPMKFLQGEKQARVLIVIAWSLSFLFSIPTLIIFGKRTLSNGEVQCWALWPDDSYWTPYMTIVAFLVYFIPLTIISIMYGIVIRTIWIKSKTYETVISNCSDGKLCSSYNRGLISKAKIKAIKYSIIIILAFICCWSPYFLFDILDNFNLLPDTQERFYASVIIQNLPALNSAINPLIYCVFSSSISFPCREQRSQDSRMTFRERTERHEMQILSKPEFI

[2] = 15 min; cited from earlier work
[3] = system: NPS-induced hyperlocomotion; conditions: 50 mpk IP, 90 minute mouse model; cited from earlier work
[4] = Stability in aqueous buffers; format: physicochemical; conditions: HBBS or PBS, 48 hours
Wistar rats [5] = conditions: rat food intake model; cited from earlier work
NPSR [6] = molecular target: T1, NPSR; assay: Calcium mobilization assay in CHO-NPSR cells; format: cell-based
Wistar rats [7] = assay: Rat palatable food intake model; format: in vivo
[8] = Mouse pharmacokinetics, 10 mpk IP; format: in vivo
[9] = Stability after incubation in mouse liver microsomes; conditions: 0 min
rats = conditions: cited from earlier work
Solubility in PBS = format: physicochemical; conditions: aqueous buffer
NPSR [10] = molecular target: T1, NPSR; assay: [125I] Y10-hNPS binding; conditions: relative to 1b
55 targets = assay: Profiling at 10 µM against 55 targets
ERK phosphorylation = conditions: rats, 1 mpk; cited from earlier work
NPSR [11] = molecular target: T1, NPSR; assay: cAMP assay; format: cell-based; conditions: relative to 1b
[12] = molecular target: Human Recombinant µ-Opioid Receptor OPRM1 (Homo sapiens, UniProt P35372); format: binding
Human Recombinant µ-Opioid Receptor OPRM1, sequence (P35372 whole entry): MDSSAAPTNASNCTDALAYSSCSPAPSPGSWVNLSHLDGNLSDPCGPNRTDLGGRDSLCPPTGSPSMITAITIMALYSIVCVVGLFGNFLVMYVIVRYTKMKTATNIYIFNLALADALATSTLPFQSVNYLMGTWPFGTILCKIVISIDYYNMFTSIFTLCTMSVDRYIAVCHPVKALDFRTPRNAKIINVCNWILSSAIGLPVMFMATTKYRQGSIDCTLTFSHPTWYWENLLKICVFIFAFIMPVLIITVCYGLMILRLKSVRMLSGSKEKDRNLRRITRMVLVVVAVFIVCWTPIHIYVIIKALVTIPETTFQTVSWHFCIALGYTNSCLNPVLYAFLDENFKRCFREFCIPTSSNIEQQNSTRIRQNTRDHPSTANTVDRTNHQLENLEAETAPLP

NPSR [13] = conditions: 30 mpk IP, discrete regions of the rat brain; cited from earlier work
[14] = 0 h

Cc1nc2ccccn2c1P(=S)(c1ccccc1)c1ccccc1 [12d, 3-(Diphenylphosphorothioyl)-2-methylimidazo[1,2-a]pyridine]
IC50 (NPSR [1]; ERK IC50, Table 1, CHO-NPS cells, 1 nM NPS (EC80), one experiment in duplicate): 30 nM

O=C(NCc1ccc(F)cc1)N1CCN2C(=O)OC(c3ccccc3)(c3ccccc3)C2C1 (centres unmarked) [1b, 3-oxo-1,1-diphenyl-tetrahydro-oxazolo[3,4-a]pyrazine-7-carboxylic acid 4-fluoro-benzylamide]
brain level [2]: ~6000 nM
reduction of NPS-induced hyperlocomotion [3]: about 50%

Cc1c(P(=S)(c2ccccc2)c2ccccc2)[n+]2ccccc2n1C.[I-] [compound 7, 3-(diphenylphosphorothioyl)-1,2-dimethylimidazo[1,2-a]pyridin-1-ium]
chemical stability in aqueous buffers [4]: did not decompose to any other species

[D-Cys(tBU)^5]NPS
reversal of the anorectic effect of NPS (Wistar rats [5]): reverse the anorectic effect of NPS

Cc1c(P(=S)(c2ccccc2)c2ccccc2)n2ccccc2[n+]1CCCc1ccccc1 [20d, 3-(Diphenylphosphorothioyl)-2-methyl-1-(3-phenylpropyl)imidazo[1,2-a]pyridin-1-ium]
IC50 (NPSR [6]; IC50 in the calcium assay): 1 nM
IC50 (NPSR [1]; IC50 in the ERK assay): 2 nM

C[n+]1cc(P(=S)(c2ccccc2)c2ccccc2)n2ccccc21 [13a, 3-(Diphenylphosphorothioyl)-1-methylimidazo[1,2-a]pyridin-1-ium]
ERK assay inhibition at the highest concentration tested (NPSR [1]; Table 1 footnote b, 50 µM): <50% ^b

NPS: neuropeptide S, peptide sequence SFRNGVGTGMKKTSFQRAKS, endogenous agonist of NPSR [reference compound]
palatable food intake (Wistar rats [7]; 10 µg NPS icv, 15, 30 and 60 min): marked reduction in food intake

Cc1c(P(=S)(c2ccccc2)c2ccccc2)n2ccccc2[n+]1C/C=C/c1ccccc1.[Br-] [20e, 1-Cinnamyl-3-(diphenylphosphorothioyl)-2-methylimidazo[1,2-a]pyridin-1-ium]
Brain concentration, mean ([8]; 10 mpk IP, 0 hr): BQL
Plasma concentration, mean ([8]; 10 mpk IP, 0 hr): BQL
Brain concentration, mean ([8]; 10 mpk IP, 0 hr, N=3): BQL
Plasma concentration, mean ([8]; 10 mpk IP, 0 hr, N=3): BQL
Brain concentration, mean ([8]; 10 mpk IP, 0.083 hr): 30 nmol/g
Brain concentration, mean ([8]; 10 mpk IP, 0.25 hr): 52 nmol/g
Brain concentration, mean ([8]; 10 mpk IP, 0.5 hr): 53 nmol/g
Brain concentration, mean ([8]; 10 mpk IP, 1 hr): 44 nmol/g
Brain concentration, mean ([8]; 10 mpk IP, 2 hr): 57 nmol/g
Brain concentration, mean ([8]; 10 mpk IP, 4 hr): 53 nmol/g
Brain concentration, mean ([8]; 10 mpk IP, 8 hr): 60 nmol/g
Brain concentration, mean ([8]; 10 mpk IP, 12 hr): 93 nmol/g
Brain concentration, mean ([8]; 10 mpk IP, 24 hr): 52 nmol/g
concentration at 1 h ([8]; plasma, ip, 10 mg/kg, Plasma concentration, mean, 10 mpk IP, 1 hr): 556 nM
concentration at 2 h ([8]; plasma, ip, 10 mg/kg, Plasma concentration, mean, 10 mpk IP, 2 hr): 386 nM
concentration at 4 h ([8]; plasma, ip, 10 mg/kg, Plasma concentration, mean, 10 mpk IP, 4 hr): 245 nM
concentration at 8 h ([8]; plasma, ip, 10 mg/kg, Plasma concentration, mean, 10 mpk IP, 8 hr): 214 nM
concentration at 12 h ([8]; plasma, ip, 10 mg/kg, Plasma concentration, mean, 10 mpk IP, 12 hr): 126 nM
concentration at 24 h ([8]; plasma, ip, 10 mg/kg, Plasma concentration, mean, 10 mpk IP, 24 hr): 54 nM
adverse reactions ([8]; single 10 mpk IP dose): No adverse reactions were observed
% parent compd remaining after incubation in mouse liver microsomes ([9]; with NADPH): 100%
% parent compd remaining after incubation in mouse liver microsomes ([9]; without NADPH): 94%
efficacy in rat alcohol models (rats; IP dose of 1.0 mpk): show efficacy
alcohol self administration in rats (rats; dose as low as 1 mpk): supression of alcohol self administartion
solubility kinetic (Solubility in PBS; kinetic from dmso stock): > 150 µM
solubility thermodynamic (Solubility in PBS; thermodynamic from solid): ~45 µM
fold more potent than 1b in the displacement assay (NPSR [10]): 5 fold
inhibition of control in seven of 55 targets (55 targets): > 90%
alcohol induced ERK phosphorylation in the central amygdala (ERK phosphorylation): reduce alcohol induced ERK phosphorylation
fold more potent than 1b in the calcium assay (NPSR [6]; relative to 1b): 5 fold
fold more potent than 1b in the cAMP assay (NPSR [11]): 9 fold
fold activity relative to naloxone or morphine, DAMGO displacement [12]: < 200 fold
reversal of NPS-induced suppression of palatable food intake (Wistar rats [7]; single 10 µg icv, before 10 µg NPS icv, 15, 30 and 60 min): reverse the suppression of food intake

CCC(C)(CCN1CCOCC1)N(Cc1cc2ccccc2n(C)c1=O)C(=O)C1CCCCC1 (centres unmarked) [compound 2]
ex vivo occupancy of NPSR (NPSR [13]): high ex vivo occupancy of NPSR
% parent compd remaining after incubation in mouse liver microsomes [14]: 100%
